Source: article PMC3834928, “SNEDDS Containing Poorly Water Soluble Cinnarizine; Development and in Vitro Characterization of Dispersion, Digestion and Solubilization” (Pharmaceutics, 2012)
Values after ≈ are worked out from the molar mass of the structure shown.

Tests used:
[1] = cited from earlier work
[2] = Solubility of cinnarizine in SNEDDSs, excipients and buffer (excess drug, end-over-end rotation, HPLC); assay type: physicochemical
Protocol: An excess of cinnarizine was added to the SNEDDSs, selected excipients (sesame oil and oleic acid) and 100 mM TRIS maleate buffer, pH 6.5. The resulting suspensions were placed in an end-over-end rotating device protected from light at 25 °C for the SNEDDSs and at 37 °C for the excipients and buffer; the temperatures were selected for storage purpose and for its physiological relevance, respectively. Samples were withdrawn at specified time points, i.e., 28, 50, and 72 h for the SNEDDSs, 22 h and 48 h for the excipients, and at 51 h and 75 h for the buffer. Samples were centrifuged at 15,000 rpm for 45 min (Biofuge 15, Hereaus-Sepatech, Oterode, Germany). Between two and three drops of supernatant were weighed in a 10 mL volumetric flask and diluted with ethanol. This solution was further diluted with mobile phase to an appropriate concentration. Samples from the buffer were diluted with mobile phase. Quantification of cinnarizine was performed as described in the analytical section. The determination of solubility was considered attained when samples from two consecutive time points varied by less than 5%. The solubilities were determined in triplicate.
(§1) The concentration of cinnarizine was determined using a HPLC method. A HPLC system (Hitachi, Merck, Darmstadt, Germany) equipped with a D-7000 interface, an L-7200 autosampler, a L-7100 pump, a L-7300 column oven (35 °C), and a L-7400 UV detector or a L-7480 fluorescence detector. Data was processed by using HPLC System Manager Version 4.0 from Merck (Darmstadt, Germany). Chromatographic separation was obtained using a Luna C18 150 × 4.6 mm, 5 µm, column and a C18 guard column (Phenomenex, Torrance, CA, USA). The mobile phase consisted of 50% (v/v) acetonitrile and 50% (v/v) 20 mM ammonium dihydrogen phosphate monobasic buffer, pH 4.5. The temperature of the column was maintained at 35 °C and the flow rate and injection volume were 1 mL/min and 25 µL, respectively. The UV detection was carried out at 253 nm and quantification was performed from peak areas using a six point linear standard curve ranging from 0.25–4 µg/mL.

[3] = set-up: method as in PMID 7616366; details: dogs, n = 4, mean ± SEM; cited from earlier work
[4] = Colloidal dispersion of SNEDDSs in FaSSGF pH 1.6 (USP II apparatus); assay type: physicochemical; details: FaSSGF pH 1.6, 37 °C, during the experiment (60 min), all four SNEDDSs
Protocol: as §1
Colloidal dispersion studies were performed in 250 mL fasted-state, simulated gastric fluid (FaSSGF) at pH 1.6. […] A quantity of 1 g of each SNEDDS containing 25 mg cinnarizine was weighed on a watch glass, and the glass with formulation was gently slid down the vessel wall to the bottom of the dissolution vessel and thereby introduced into the dispersion medium. […]

[5] = log POct/W; cited from earlier work
[6] = cited from earlier work; remark: listed apart in the source

Row | SMILES | pKa in water ([1]; in water) | apparent pKa in mixed bile acid/phospholipid micelles ([1]; incorporated into mixed bile acid/phospholipid micelles) | solubility ([2]; 100 mM TRIS maleate buffer pH 6.5, 37 °C, n = 3, read-out: Aqueous solubility (37 °C)) [µg/mL] | Cinnarizine solubility in SNEDDS I ([2]; in SNEDDS I preconcentrate, 25 °C, mean ± SD (n = 3)) [mg/g] | Cinnarizine solubility in SNEDDS II ([2]; in SNEDDS II preconcentrate, 25 °C, mean ± SD (n = 3)) [mg/g] | Cinnarizine solubility in SNEDDS III ([2]; in SNEDDS III preconcentrate, 25 °C, mean ± SD (n = 3)) [mg/g] | Cinnarizine solubility in SNEDDS IV ([2]; in SNEDDS IV preconcentrate, 25 °C, mean ± SD (n = 3)) [mg/g] | Cinnarizine solubility in oleic acid ([2]; in oleic acid, 37 °C, mean ± SD (n = 3)) [mg/g] | Cinnarizine solubility in sesame oil ([2]; in sesame oil, 37 °C, mean ± SD (n = 3)) [mg/g] | Bioavailability from a conventional capsule [3] | Bioavailability from an aqueous suspension formulation [3] | Precipitation of cinnarizine during colloidal dispersion [4] | pKa [1] | Log P [5] | Cinnarizine solubility in oleic acid (previous study) ([6]; in oleic acid, 25 °C) [mg/g] | Solubility of cinnarizine in water at low pH ([6]; pH 1.3) [µg/mL]
1 | CCCCCCCC/C=C\CCCCCCCC(=O)O [oleic acid] | 9.85 | 6.5 |  |  |  |  |  |  |  |  |  |  |  |  |  | 
2 | C(=C\c1ccccc1)/CN1CCN(C(c2ccccc2)c2ccccc2)CC1 [Cinnarizine, cinnarizine] |  |  | 0.39 ± 0.1 (≈ 1.06 µM) | 67.4 ± 0.9 | 58.8 ± 0.5 | 36.4 ± 0.7 | 28.3 ± 0.8 | 335 ± 3 | 25.7 ± 0.4 | 0.8% ± 0.4% | 8% ± 4% | not observed | 1.95 [18] | 5.77 [16] | 237 | 853
